In patent US11230542B2, “Inhibitors of integrated stress response pathway” (Praxis Biotech LLC, priority 2017, dated 2022):
Read-outs that look alike come from different tables or passages of the source.

How the values were obtained:
ATF4 = ATF4 expression inhibition assay (thapsigargin-stressed HEK293T cells, western blot); format: cell-based; details: Homo sapiens, HEK-293T
Method in brief: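 HEK293T cells treated with thapsigargin (Tg) plus test compound (100 nM or 1 μM) for 3 hours, then lysed; ATF4 measured by western blot with ECL and densitometry. % inhibition normalized to Tg alone (0%) and untreated cells (100%); IC50 also calculated.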

CHO cells = assay: Protein translation assay (puromycin incorporation in CHO cells, unstressed or Tg-stressed); format: cell-based, Chinese hamster; details: Cricetulus griseus, media alone 100%
Method in brief: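 CHO cells pretreated 2 h with 1 μM compound (unstressed), or 1 h with 100 nM or 1 μM then co-treated with 300 nM Tg. Pulse-labelled with 10 μg/ml puromycin for 30 min, then anti-puromycin western blot with densitometry. Unstressed values normalized to media alone (100%); stressed recovery scaled between media alone (100%) and Tg alone (0%).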

[1] = test system: CT26 colon carcinoma cell line; assay: Tumor growth and density model; format: in vivo, mouse; details: 10 mg/kg daily oral gavage for 13 days from day 6 post tumor-cell injection
Experimental: Wild type six-weeks-old male Balb/c mice obtained from the vivarium Fundacion Ciencia & Vida Chile (Santiago, Chile) were used. Mice were housed in independent plastic cages in a room maintained at 25° C. with a 12-h:12-h light:dark cycle.
1×10^6 CT26 colon carcinoma cell line (ATCC #CRL-2638, ATCC Manassas, Va.) were injected subcutaneously in the right lower flank of each animal as described (Nat Commun. 2012 Jun. 12; 3:896). Non-injected animals were used as controls. At day 6 post tumor-cell injection, mean tumor volume was about 100 mm^3, animals were weighed and randomized into two groups and treated with 10 mg/kg of compound 3 formulated in 50% Polyethylene glycol (PEG-400) in distilled water, or with vehicle (50% PEG-400 in distilled water) by daily oral gavage for 13 days.
At the end of the study, tumors were measured with digital caliper and tumors volumes, expressed in mm^3, were calculated with the following formula: Tumor volume (mm^3)=(a×b^2)/2 where “a” is the largest perpendicular diameter and “b” is the smallest diameter. Animals were then sacrificed and tumors were extracted and weighed. The volumes and weight of the tumors of each animal are shown in FIGS. 12A and 12B respectively. Bars represent mean±SEM. Statistical analyses were performed using GraphPad Prism software and significant difference was assessed by t test (*<0.05).

In the case of `O=C(COc1ccc(Cl)cc1)N[C@H]1CC[C@H](NC[C@@H](O)COc2ccc(Cl)cc2)CC1` (single isomer, unassigned) [Compound 3, (+)-2-(4-chlorophenoxy)-N-(4-((3-(4-chlorophenoxy)-2-hydroxypropyl)amino)cyclohexyl)acetamide], the IC50 (ATF4; 3 h with 100 nM Tg, test compound 1 nM to 1 μM) is reported as 145 nM, the inhibition at 0.1 µM (ATF4; 3 h with 100 nM thapsigargin (Tg) and 100 nM test compound, Tg alone 0%, untreated 100%) is reported as 35% and the inhibition at 1 µM (ATF4; 3 h with 100 nM thapsigargin (Tg) and 1 μM test compound, Tg alone 0%, untreated 100%) is reported as 77%. The activity at 0.1 µM (CHO cells; CHO cells stressed with 300 nM Tg, Tg alone 0%, read-out: % Recovery of protein expression (100 nM test compound)) was 69.4%, the activity at 1 µM (CHO cells; CHO cells stressed with 300 nM Tg, Tg alone 0%, read-out: % Recovery of protein expression (1 μM test compound)) was 155% and the activity at 1 µM (CHO cells; unstressed CHO cells, 2 h, read-out: % Protein expression relative to untreated (1 μM test compound)) was 162%. The “tumor density (weight/volume ratio)” value [1] was “significantly reduce the tumor density” and the tumor volume [1] was “does not reduce tumor volume”.
